This test has as its system 276233-004-R-J1-PDC KRAS spheroids with HUVEC/MSC, viability. Put plainly: Anticancer human tumor 276233-004-R-J1-PDC patient-derived colon adenocarcinoma cell line growth inhibition [KRAS2]. The settings on record: for viability, T/C: stronger effect = lower value. The source says: Multicellular complex tumor spheroid response to RAS pathway inhibitors in combination with a targeted agents in patient-derived cell lines with oncogenic KRAS variants from multiple cancer types
A high-throughput screen of multi-cell type tumor spheroids was designed to identify active combinations of targeted small molecules and KRAS pathway inhibitors. Complex spheroids include a stromal component modeled by human endothelial cells (HUVEC) and fibroblasts modeled by human mesenchymal stem cells (MSCs). The concentration ranges selected for each drug and investigational agent were based upon clinically achievable concentrations if the clinical Cmax of the agent was known.
Compounds. The drugs and investigational agents: BI-3406 (NSC825286), BAY-293 (NSC824723), batoprotafib (TNO155; NSC825523), sotorasib (AMG 510; NSC818433), MRTX1257 (NSC819558), elimusertib (BAY 1895344; NSC800525), molibresib (GSK525762; NSC774829), temuterkib (LY3214996; NSC803410), venetoclax (NSC766270), alisertib (NSC759677), olaparib (NSC753686), talazoparib (NSC767125), erdafitinib (NSC781556), ipatasertib (NSC767898), cabozantinib (NSC761068), nintedanib (NSC756659), abemaciclib (NSC768073), docetaxel (NSC628503), trametinib (NSC758246), and sapanisertib (NSC764658) were obtained from the National Cancer Institute (NCI) Developmental Therapeutics Program Chemical Repository. The FDA-approved anticancer drug set is available from the Developmental Therapeutics Program. […] The stock solutions were prepared in dimethyl sulfoxide (DMSO, Sigma-Aldrich, St. Louis, MO, cat. D2650) at 800-fold the tested concentration and stored at -70 degrees C prior to their use. All drugs and investigational agents were tested over a range starting from a high concentration at or near the clinical Cmax and decreasing in half-log increments. If the clinical Cmax for an agent had not been determined, the highest concentration tested was 10 microM.
Cell Culture. All cells were maintained in an incubator at 37 degrees C and 5% CO2 with 95% humidity. The PDC lines were cultured according to standard operating procedures established by the NCI PDMR (https://pdmr.cancer.gov/sops/default.htm). Briefly, all PDCs were thawed and cultured in Matrigel-coated flasks prepared with a working solution of 1X Ham's F-12 nutrient mix, without supplementation (Invitrogen, Waltham, MA, cat. 11765054), 100 U/mL penicillin-streptomycin (Invitrogen, cat. 15140122), and 2.5% Matrigel (Corning Inc., Corning, NY, cat. 354248) for the first three passages. All PDCs were cultured in complete DMEM/F-12 media containing advanced DMEM/F-12 (Invitrogen, cat. 12634028), 4.9% defined fetal bovine serum, heat inactivated (HyClone Laboratories Inc., Logan, UT, cat. SH30070.03HI), 389 ng/mL hydrocortisone (Sigma-Aldrich, cat. H4001), 9.7 ng/mL human EGF recombinant protein (Invitrogen, cat. PHG0313), 23.4 microg/mL adenine (Sigma-Aldrich, cat. A2786), 97.3 U/mL penicillin-streptomycin (Invitrogen, cat. 15140122), 1.9 mM L-glutamine (Invitrogen, cat. 25030081), and 9.7 microM Y-27632 dihydrochloride (Tocris Bioscience, Bristol, United Kingdom, cat. 1254). The PDCs were cultured in complete DMEM/F12 media without 9.7 microM Y-27632 dihydrochloride for at least two passages prior to the screen. The established cell line HOP-62 was cultured in RPMI 1640 medium, HEPES (Invitrogen, cat. 22400105) with 10% defined fetal bovine serum (HyClone Laboratories Inc., cat. SH30070.03) and 2 mM L-glutamine (Invitrogen, cat. 25030081). The pooled donor HUVEC were cultured in endothelial cell growth medium 2 (PromoCell, Heidelberg, Germany, cat. C-22011) and the hMSC were cultured in mesenchymal stem cell growth medium 2 (PromoCell, cat. C-28009). For all experiments, HUVEC and hMSC were used at passages </=5, while the malignant cell lines were used at passages </=15. […]

Where [1] appears, read: curve of first compound, second compound 0.1 µM.
[2] abbreviates: curve of first compound, second compound 0.316 µM.
Setting [3] is: curve of first compound, second compound 1 µM.
Setting [4] is: curve of first compound, second compound 3.16 µM.
Where [5] appears, read: curve of first compound, second compound 10 µM.
Setting [6] is: second compound 0.1 µM, first compound 0.01 µM.
The mark [7] stands for this setting: second compound 0.1 µM, first compound 0.0316 µM.
[8] abbreviates: second compound 0.1 µM, first compound 0.1 µM.
The mark [9] stands for this setting: second compound 0.316 µM, first compound 0.01 µM.
[10] abbreviates: second compound 0.316 µM, first compound 0.0316 µM.
[11] abbreviates: second compound 0.316 µM, first compound 0.1 µM.
Setting [12] is: second compound 1 µM, first compound 0.01 µM.
Setting [13] is: second compound 1 µM, first compound 0.0316 µM.
[14] abbreviates: second compound 1 µM, first compound 0.1 µM.
Where [15] appears, read: second compound 3.16 µM, first compound 0.01 µM.
[16] abbreviates: second compound 3.16 µM, first compound 0.0316 µM.
The mark [17] stands for this setting: second compound 3.16 µM, first compound 0.1 µM.
Where [18] appears, read: second compound 10 µM, first compound 0.01 µM.
Where [19] appears, read: second compound 10 µM, first compound 0.0316 µM.
[20] abbreviates: second compound 10 µM, first compound 0.1 µM.

The structures appear in SMILES notation. A value given as a limit tells only on which side of the number the result lay.
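Note: cells exposed to agents for seven days before viability read.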
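Throughout, for viability, T/C: 100% = DMSO vehicle control wells and lower values mean fewer viable cells.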

In the case of `COc1cc2nc(C)nc(NC(C)c3cc(N)cc(C(F)(F)F)c3)c2cc1OC1CCOC1` (stereo unspecified), the half-maximal inhibitory concentration (IC50) (compound alone, run of 07/26/2021) was 8.44 µM [middle of 6 runs].
Regarding `CC(=O)OC12COC1CC(O)C1(C)C(=O)C(O)C3=C(C)C(OC(=O)C(O)C(NC(=O)OC(C)(C)C)c4ccccc4)CC(O)(C(OC(=O)c4ccccc4)C21)C3(C)C` (stereo unspecified) + C=CC(=O)N1CCN(c2nc(=O)n(-c3c(C)ccnc3C(C)C)c3nc(-c4c(O)cccc4F)c(F)cc23)C(C)C1, the IC50 under setting [1] is more than 3160 nM; the half-inhibitory concentration (IC50) under setting [2] was more than 3160 nM; the IC50 under setting [3] was more than 3160 nM; the half-inhibitory concentration (IC50) under setting [4] was more than 3160 nM; the IC50 under setting [5] was more than 3160 nM. In addition, the viability, T/C under setting [6] was 87%; the viability, T/C under setting [7] was 96.5%; the viability, T/C under setting [8] was 80.4%; the viability, T/C (second compound 0.1 µM, first compound 0.316 µM) was 77.4%; the viability, T/C (second compound 0.1 µM, first compound 1 µM) is 86.3%; the viability, T/C (second compound 0.1 µM, first compound 3.16 µM) is 97.8%. The viability, T/C is 100% under setting [9]; 109% under setting [10]; 79.4% under setting [11]; 70.5% (second compound 0.316 µM, first compound 0.316 µM); 90.1% (second compound 0.316 µM, first compound 1 µM); 89.5% (second compound 0.316 µM, first compound 3.16 µM). Besides, the viability, T/C reads like this: under setting [12], 90.7%; under setting [13], 85.3%; under setting [14], 71.6%; (second compound 1 µM, first compound 0.316 µM) 75%; (second compound 1 µM, first compound 1 µM) 88%; (second compound 1 µM, first compound 3.16 µM) 99.2%. The viability, T/C runs as follows: under setting [15], 95.5%; under setting [16], 84.9%; under setting [17], 77.8%; (second compound 3.16 µM, first compound 0.316 µM) 92.8%; (second compound 3.16 µM, first compound 1 µM) 79.5%; (second compound 3.16 µM, first compound 3.16 µM) 90.2%. Further, the viability, T/C runs as follows: under setting [18], 79.2%; under setting [19], 72.2%; under setting [20], 97.6%; (second compound 10 µM, first compound 0.316 µM) 64.2%; (second compound 10 µM, first compound 1 µM) 103%; (second compound 10 µM, first compound 3.16 µM) 129%.
Consider `CN(C)C/C=C/C(=O)Nc1cc2c(Nc3ccc(F)c(Cl)c3)ncnc2cc1O[C@H]1CCOC1` + C=CC(=O)N1CCN(c2nc(=O)n(-c3c(C)ccnc3C(C)C)c3nc(-c4c(O)cccc4F)c(F)cc23)C(C)C1, for which the IC50 is, setting by setting: under setting [1], more than 100 nM; under setting [2], more than 100 nM; under setting [3], more than 100 nM; under setting [4], more than 100 nM; under setting [5], more than 100 nM. The viability, T/C (second compound 0.1 µM, first compound 0.000316 µM) is 93.5%; the viability, T/C (second compound 0.1 µM, first compound 0.001 µM) is 97.1%; the viability, T/C (second compound 0.1 µM, first compound 0.00316 µM) was 72%; the viability, T/C under setting [6] was 87.6%; the viability, T/C under setting [7] was 75.8%; the viability, T/C under setting [8] is 85.3%. The viability, T/C was 109% (second compound 0.316 µM, first compound 0.000316 µM); 80.8% (second compound 0.316 µM, first compound 0.001 µM); 83% (second compound 0.316 µM, first compound 0.00316 µM); 67.6% under setting [9]; 88% under setting [10]; 87% under setting [11]. For the same molecule, the viability, T/C was 103% (second compound 1 µM, first compound 0.000316 µM); 101% (second compound 1 µM, first compound 0.001 µM); 80.8% (second compound 1 µM, first compound 0.00316 µM); 82.6% under setting [12]; 84.6% under setting [13]; 95.6% under setting [14]. In addition, the viability, T/C reads like this: (second compound 3.16 µM, first compound 0.000316 µM) 87.1%; (second compound 3.16 µM, first compound 0.001 µM) 77.8%; (second compound 3.16 µM, first compound 0.00316 µM) 85.9%; under setting [15], 69.9%; under setting [16], 78.6%; under setting [17], 69.7%. In addition, the viability, T/C is, setting by setting: (second compound 10 µM, first compound 0.000316 µM) 66%; (second compound 10 µM, first compound 0.001 µM) 65.8%; (second compound 10 µM, first compound 0.00316 µM) 57.8%; under setting [18], 66.8%; under setting [19], 69.1%; under setting [20], 84.9%.

(Values after PubChem BioAssay AID1963873 (Molecular Pharmacology Branch, DTP, NCI, 2024).)
